What all share (assay): relative viability (nuclei count vs DMSO), 5 days (fraction); higher = more cells survive
Compound in the assay “RU-SKI 43 + Decitabine”: CC[C@@H](C)CNCC(=O)N1CCC2=C([C@@H]1COC3=CC=CC(=C3)C)C=CS2 [RU-SKI 43] + Nc1ncn([C@H]2C[C@H](O)[C@@H](CO)O2)c(=O)n1 [Decitabine] (partner 2 µM)
In a few lines: (§1)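 For relative viability, nuclei counts in treated wells were divided by those in vehicle wells. Lung cancer cell lines had been pin-tool dosed in 1536-well plates the day after seeding and cultured for 5 days, then fixed and stained in one step (final 0.05% Triton X-100, 1% formaldehyde, 1 ug/ml Hoechst) and imaged at 4×. Doses were one drug alone or a fixed anchor-drug dose plus five library-drug doses (not always all listed) in √10 steps, and values are duplicate-plate medians.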

Compound in the assay “Irinotecan + Bortezomib”: CCc1c2c(nc3ccc(OC(=O)N4CCC(N5CCCCC5)CC4)cc13)-c1cc3c(c(=O)n1C2)COC(=O)[C@]3(O)CC [Irinotecan] + CC(C)C[C@H](NC(=O)[C@H](Cc1ccccc1)NC(=O)c1cnccn1)B(O)O [Bortezomib] (partner 0.002 µM)
In a few lines:
as §1

Compound in the assay “Irinotecan + Dasatinib”: CCc1c2c(nc3ccc(OC(=O)N4CCC(N5CCCCC5)CC4)cc13)-c1cc3c(c(=O)n1C2)COC(=O)[C@]3(O)CC [Irinotecan] + Cc1nc(Nc2ncc(C(=O)Nc3c(C)cccc3Cl)s2)cc(N2CCN(CCO)CC2)n1 [Dasatinib] (partner 0.075 µM)
An outline of the steps:
as §1

Compound in the assay “Irinotecan + Olaparib”: CCc1c2c(nc3ccc(OC(=O)N4CCC(N5CCCCC5)CC4)cc13)-c1cc3c(c(=O)n1C2)COC(=O)[C@]3(O)CC [Irinotecan] + O=C(c1cc(Cc2n[nH]c(=O)c3ccccc23)ccc1F)N1CCN(C(=O)C2CC2)CC1 [Olaparib] (partner 8 µM)
In a few lines: as §1

As to UMC-11, the relative viability in the assay with RU-SKI 43 + Decitabine (first compound 0.1 µM) is 0.668; with RU-SKI 43 + Decitabine (first compound 0.3162 µM) it was 0.614; with RU-SKI 43 + Decitabine (first compound 1 µM), 0.675; with RU-SKI 43 + Decitabine (first compound 3.162 µM), 0.619; with RU-SKI 43 + Decitabine (first compound 10 µM) it was 0.64; in the assay with Irinotecan + Bortezomib (first compound 0.6325 µM) it was 0.595. Further, the relative viability worked out at 0.519 in the assay with Irinotecan + Bortezomib (first compound 2 µM); 0.184 with Irinotecan + Bortezomib (first compound 6.325 µM); 0.139 with Irinotecan + Bortezomib (first compound 20 µM); 0.422 with Irinotecan + Dasatinib (first compound 0.6325 µM); 0.372 with Irinotecan + Dasatinib (first compound 2 µM); 0.232 with Irinotecan + Dasatinib (first compound 6.325 µM). In addition, the relative viability with Irinotecan + Dasatinib (first compound 20 µM) came out at 0.104; with Irinotecan + Olaparib (first compound 0.6325 µM) it was 0.273; in the assay with Irinotecan + Olaparib (first compound 2 µM) it was 0.206; in the assay with Irinotecan + Olaparib (first compound 6.325 µM), 0.283; in the assay with Irinotecan + Olaparib (first compound 20 µM), 0.226.

The record behind these values is the supplement of paper PMC10307832.
